Experimental data from patent publication US9983218B2, “Indole and indoline derivatives and methods of use thereof” (AbbVie Inc., priority 2008, dated 2018).

What was measured:
[1] = tested on: primary postnatal (P0) cortical cells; assay: Neurite outgrowth assay (Aβ1-42-induced reduction of neurite outgrowth, high content microscopy); type: cell-based, rat; settings: Rattus norvegicus; maximum response relative to 300 nM dimebolin, at the concentration given; read-out: Maximum Effect (of % 300 nM Dimebolin)
Experimental: In addition to PC12 cells, other cellular model systems may also be used. Rat cortical cells were cultured and prepared for high content microscopy analysis as previously described (Hu, M.; Schurdak, M. E.; et al. High content screen microscopy analysis of Aβ1-42-induced neurite outgrowth reduction in rat primary cortical neurons: Neuroprotective effects of α7 neuronal nicotinic acetylcholine receptor ligands. Brain Res. 2007, 1151, 227-235.). Briefly, cortical cell cultures were plated at density of 5×10^5 cells/mL onto poly-D-lysine coated 96-well plates and maintained in a cell incubator at 37° C. with 5% CO2. Experiments were performed using 6-7 day-old cortical cell cultures by treating with test compounds. In some experiments, the effect of test compounds on reversing Aβ toxicity were also measured (Hu, M.; Schurdak, M. E.; et al. High content screen microscopy analysis of Aβ1-42-induced neurite outgrowth reduction in rat primary cortical neurons: Neuroprotective effects of α7 neuronal nicotinic acetylcholine receptor ligands. Brain Res. 2007, 1151, 227-235.). For assessment of neuroprotective effects, cells were first pretreated with test compounds for about 5 hours. Medium was then replaced with the medium containing freshly prepared about 5 μM Aβ1-42 peptide in the absence or presence of the test compounds for 3 days. The untreated group contained the same percentage of vehicle (DMSO) as in the treatment groups. Cells were fixed with approximately 4% paraformaldehyde containing 0.5% Hoechst 33342 for about 15 minutes, followed by three washes using PBS (pH 7.4) and blocked with 10% donkey serum in PBS for 1 hour at room temperature. The cells were then incubated overnight at about 4° C. with mouse anti-tubulin monoclonal antibody (1:100) for staining neurons and rabbit anti-GFAP (1:1000) for staining glia. In the next day, cells were incubated with FITC-labeled anti-mouse and TRITC-labeled anti-rabbit antibodies (1:1000) for about 1 hour at room temperature. After fixing and staining the cells, nuclei (360/400 nm excitation and 465/300 nm emission filters), neuron (475/350 nm excitation and 535/400 nm emission filters) and glial cell (535 nm excitation and 610 nm emission filters) images were collected using the ImageExpress Micro automatic fluorescent microscopy system (Molecular Devices, Sunnyvale, Calif.) employing a Nikon 10× Plan Fluor objective and Cool Snap HQ CCD camera. The Neurite Outgrowth module in the MetaMorph Imaging software was used to automatically count total cell number, number of neuron cells, and the extent of neurite outgrowth.
In the graph of FIG. 2, 100% response was the response observed for untreated cells. Exposure to Aβ1-42 produced a decrease in neurite outgrowth. Treatment of cells with compounds prior to and concomitantly with Aβ1-42 gave a neuroprotective effect with neurite outgrowth maintained or enhanced relative to untreated cells.

[2] = tested on: SK-N-SH human neuroblastoma cells; assay: Serum deprivation/JC-1 mitochondrial membrane potential (MMP) assay; type: cell-based; settings: Homo sapiens; for Emax: SK-N-SH, percent maximal intensity in JC-1 ratio normalized to 10 μM dimebolin, read-out: JC-1 max %; for EC50: SK-N-SH cells, serum deprivation ~18 hours, JC-1 ratio normalized to peak value for 10 μM dimebolin, single curve fit to mean data of n=2-3, read-out: EC50
Summary of the method: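 Cells were serum-deprived ~18 h in MEM with or without compound (DMSO ≤1%), then stained with JC-1 for 35 min at 37° C. The red/green fluorescence ratio (560/595 vs 485/535 nm) was normalized to the peak response of 10 μM dimebolin. EC50 came from one curve fit to mean data (n=2-3, duplicates).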

SMILES | Emax [1] | Emax [2] | EC50 [2]
c1cnc2ccc(-n3c4c(c5ccccc53)[C@H]3CC[C@@H](C4)N3)cc2c1 (single isomer, unassigned) [Example 278] | 96% | 189% | 2.71 µM
Cc1ccc2c(c1)c1c(n2CCc2cccc(C(F)(F)F)c2)C[C@H]2CCC[C@@H]1N2 (single isomer, unassigned) [Example 133] | 108% | – | –
O=c1cccnn1-c1ccc(-n2c3c(c4cc(F)ccc42)CN2CCC3CC2)nc1 [Example 262, 2-[6-(9-fluoro-1,3,4,5-tetrahydro-6H-2,5-ethanoazepino[4,3-b]indol-6-yl)pyridin-3-yl]pyridazin-3(2H)-one] | 99% | 182% | 8.71 µM
Cc1ccc2c(c1)[C@H]1CN3CCC(CC3)[C@H]1N2CCc1ccc(C)nc1 (relative stereo) [Example 158, (5aR*,10bS*)-9-methyl-6-[2-(6-methylpyridin-3-yl)ethyl]-3,4,5,5a,6,10b-hexahydro-1H-2,5-ethanoazepino[4,3-b]indole] | 110% | – | –
Fc1ccc(Cn2c3c(c4cc(F)ccc42)CN2CCC3CC2)cc1 [Example 165, 9-fluoro-6-(4-fluorobenzyl)-3,4,5,6-tetrahydro-1H-2,5-ethanoazepino[4,3-b]indole] | 104% | – | –
Cc1ccc2c(c1)c1c(n2CCc2cccc(C(F)(F)F)c2)C[C@@H]2CCC[C@H]1N2 [Example 135, (7S,11R)-2-methyl-5-{2-[3-(trifluoromethyl)phenyl]ethyl}-6,7,8,9,10,11-hexahydro-5H-7,11-epiminocycloocta[b]indole] | 126% | – | –
Cc1ccc(/C=C\n2c3c(c4cc(S(C)(=O)=O)ccc42)CN2CCC3CC2)cn1 [Example 181, 6-[(Z)-2-(6-methylpyridin-3-yl)vinyl]-9-(methylsulfonyl)-3,4,5,6-tetrahydro-1H-2,5-ethanoazepino[4,3-b]indole] | – | 103% | 7.89 µM
Cc1ccc(CCn2c3c(c4cc(C(C)C)ccc42)C2CCC(C3)N2C)cn1 (stereo not shown) [Example 99, 2-isopropyl-11-methyl-5-[2-(6-methylpyridin-3-yl)ethyl]-5,6,7,8,9,10-hexahydro-7,10-epiminocyclohepta[b]indole] | – | 138% | 3.07 µM
Cc1ccc(CCn2c3c(c4cc(C(C)(C)C)ccc42)C2CCC(C3)N2C)cn1 (stereo not shown) [Example 104, 2-tert-butyl-11-methyl-5-[2-(6-methylpyridin-3-yl)ethyl]-5,6,7,8,9,10-hexahydro-7,10-epiminocyclohepta[b]indole] | – | 178% | 4.16 µM
Cc1ccc2c(c1)c1c(n2CC(=O)Nc2ccc(Cl)cc2)C2CCN(CC2)C1 [Example 155, N-(4-chlorophenyl)-2-(9-methyl-1,3,4,5-tetrahydro-6H-2,5-ethanoazepino[4,3-b]indol-6-yl)acetamide] | – | 63% | 7.53 µM
Fc1cncc(Cn2c3c(c4cc(F)ccc42)CN2CCC3CC2)c1 [Example 246, 9-fluoro-6-[(5-fluoropyridin-3-yl)methyl]-3,4,5,6-tetrahydro-1H-2,5-ethanoazepino[4,3-b]indole] | – | 148% | 8.76 µM
Fc1ccc2c(c1)c1c(n2Cc2ccc(-n3cccn3)nc2)C2CCN(CC2)C1 [Example 247, 9-fluoro-6-{[6-(1H-pyrazol-1-yl)pyridin-3-yl]methyl}-3,4,5,6-tetrahydro-1H-2,5-ethanoazepino[4,3-b]indole] | – | 192% | 4.65 µM
Cc1ccc2c(c1)c1c(n2/C=C\c2ccc(C)nc2)C[C@@H]2CC[C@H]1N2C [Example 24, (7S,10R)-2,11-dimethyl-5-[(Z)-2-(6-methylpyridin-3-yl)vinyl]-5,6,7,8,9,10-hexahydro-7,10-epiminocyclohepta[b]indole] | – | 221% | 2.26 µM
Cc1ccc(CCn2c3c(c4cc(C5CC5)ccc42)C2CCC(C3)N2C)cn1 (stereo not shown) [Example 103, 2-cyclopropyl-11-methyl-5-[2-(6-methylpyridin-3-yl)ethyl]-5,6,7,8,9,10-hexahydro-7,10-epiminocyclohepta[b]indole] | – | 180% | 4.17 µM
Cc1ccc2c(c1)c1c(n2S(=O)(=O)c2ccccc2)CC2CCC1N2C (stereo not shown) [Example 69, 2,11-dimethyl-5-(phenylsulfonyl)-5,6,7,8,9,10-hexahydro-7,10-epiminocyclohepta[b]indole] | – | 161% | 4.43 µM
Cc1ccc2c(c1)c1c(n2-c2ccc(-c3ccc(I)cc3)nn2)CC2CCC1N2C (stereo not shown) [Example 3, 5-[6-(4-iodophenyl)pyridazin-3-yl]-2,11-dimethyl-5,6,7,8,9,10-hexahydro-7,10-epiminocyclohepta[b]indole] | – | 191% | 5.11 µM
Cc1ccc2c(c1)c1c(n2CCc2ccc(C)nc2)C[C@H]2CCC[C@@H]1N2 (single isomer, unassigned) [Example 120] | – | 197% | 3.4 µM
Cc1ccc2c(c1)c1c(n2CCc2cnc(C)cn2)C[C@H]2CC[C@@H]1N2C [Example 34, (7R,10S)-2,11-dimethyl-5-[2-(5-methylpyrazin-2-yl)ethyl]-5,6,7,8,9,10-hexahydro-7,10-epiminocyclohepta[b]indole] | – | 175% | 18.1 µM
Fc1ccc2c(c1)c1c(n2Cc2ccc(N3CCCC3)nc2)C2CCN(CC2)C1 [Example 244, 9-fluoro-6-{[6-(pyrrolidin-1-yl)pyridin-3-yl]methyl}-3,4,5,6-tetrahydro-1H-2,5-ethanoazepino[4,3-b]indole] | – | 226% | 5.65 µM
Cc1ccc2c(c1)[C@H]1[C@H]3CC4C[C@H](CN(C4)C3)[C@H]1N2CCc1ccc(C)nc1 (relative stereo) [Example 194, (1R*,7R*,7aS*,12bR*)-11-methyl-8-[2-(6-methylpyridin-3-yl)ethyl]-1,4,5,6,7,7a,8,12b-octahydro-2H-1,5:3,7-dimethanoazonino[5,4-b]indole] | – | 321% | 2.18 µM
FC(F)(F)c1ccc(Cn2c3c(c4ccccc42)CN2CCC3CC2)cn1 [Example 256, 6-{[6-(trifluoromethyl)pyridin-3-yl]methyl}-3,4,5,6-tetrahydro-1H-2,5-ethanoazepino[4,3-b]indole] | – | 89.6% | 15.5 µM
CCOC(=O)Cn1c2c(c3cc(C)ccc31)CN1CCC2CC1 [Example 154, ethyl (9-methyl-1,3,4,5-tetrahydro-6H-2,5-ethanoazepino[4,3-b]indol-6-yl)acetate] | – | 31% | 30 µM
Fc1ccc2c(c1)c1c(n2Cc2coc(-c3ccccc3)n2)C2CCN(CC2)C1 [Example 173, 9-fluoro-6-[(2-phenyl-1,3-oxazol-4-yl)methyl]-3,4,5,6-tetrahydro-1H-2,5-ethanoazepino[4,3-b]indole] | – | 120% | 6.15 µM
c1ccc2c(c1)c1c(n2-c2cc(-n3ccnc3)ccn2)C2CCN(CC2)C1 [Example 272, 6-[4-(1H-imidazol-1-yl)pyridin-2-yl]-3,4,5,6-tetrahydro-1H-2,5-ethanoazepino[4,3-b]indole] | – | 149% | 3.99 µM
CC1CCC(CCn2c3c(c4cc(OC(F)(F)F)ccc42)CN2CCC3CC2)CN1 (stereo not shown) [Example 179, 6-[2-(6-methylpiperidin-3-yl)ethyl]-9-(trifluoromethoxy)-3,4,5,6-tetrahydro-1H-2,5-ethanoazepino[4,3-b]indole] | – | 116% | 5.69 µM
Cc1ccc2c(c1)c1c(n2CCc2ccc(C)nc2)C[C@@H]2CCC[C@H]1N2 (single isomer, unassigned) [Example 121] | – | 129% | 3.63 µM
Cc1ccc2c(c1)c1c(n2/C=C/c2ccc(C)nc2)C2CCN(CC2)C1 [Example 146, 9-methyl-6-[(E)-2-(6-methylpyridin-3-yl)vinyl]-3,4,5,6-tetrahydro-1H-2,5-ethanoazepino[4,3-b]indole] | – | 264% | 2.84 µM
